Assays:
EPHA4 = target: T1, EPHA4 (Homo sapiens, UniProt P54764); experiment: Kinobeads two-dose competition binding: EPHA4; details: read-out: Lestaurtinib Drugmatrix value, Gene Name EPHA4
T1 construct: endogenous in cells

EPHA1 = target: T2, EPHA1 (Homo sapiens, UniProt P21709); experiment: Kinobeads two-dose competition binding: EPHA1; details: read-out: Lestaurtinib Drugmatrix value, Gene Name EPHA1
T2 construct: endogenous in cells
T2 sequence (P21709 26-976): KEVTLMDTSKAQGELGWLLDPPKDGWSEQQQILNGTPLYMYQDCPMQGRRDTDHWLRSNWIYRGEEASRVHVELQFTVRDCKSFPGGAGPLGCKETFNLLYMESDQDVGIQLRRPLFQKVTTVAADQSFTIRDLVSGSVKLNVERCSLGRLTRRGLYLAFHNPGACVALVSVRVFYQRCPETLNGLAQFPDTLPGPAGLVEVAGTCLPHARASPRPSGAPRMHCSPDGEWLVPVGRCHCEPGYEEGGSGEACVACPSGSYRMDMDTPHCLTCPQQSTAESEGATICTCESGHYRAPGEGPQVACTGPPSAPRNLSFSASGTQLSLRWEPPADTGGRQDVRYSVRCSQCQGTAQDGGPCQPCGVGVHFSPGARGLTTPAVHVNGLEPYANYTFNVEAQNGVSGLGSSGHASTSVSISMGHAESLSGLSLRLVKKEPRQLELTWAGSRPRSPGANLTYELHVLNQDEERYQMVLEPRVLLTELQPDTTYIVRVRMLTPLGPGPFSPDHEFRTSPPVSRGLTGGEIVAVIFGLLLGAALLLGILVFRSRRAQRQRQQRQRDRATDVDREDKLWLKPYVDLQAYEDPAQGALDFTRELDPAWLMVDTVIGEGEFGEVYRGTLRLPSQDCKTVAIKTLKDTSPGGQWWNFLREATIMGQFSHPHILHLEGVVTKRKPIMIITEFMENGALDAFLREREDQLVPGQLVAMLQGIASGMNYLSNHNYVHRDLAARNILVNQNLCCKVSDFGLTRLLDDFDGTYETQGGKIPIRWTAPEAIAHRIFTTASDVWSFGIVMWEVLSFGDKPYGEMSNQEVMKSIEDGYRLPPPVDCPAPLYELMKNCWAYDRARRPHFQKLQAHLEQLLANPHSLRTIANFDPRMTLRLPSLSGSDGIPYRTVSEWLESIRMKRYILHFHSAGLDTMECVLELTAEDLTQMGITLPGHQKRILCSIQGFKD

EPHB3 = target: T3, EPHB3 (Homo sapiens, UniProt P54753); experiment: Kinobeads two-dose competition binding: EPHB3; details: read-out: Lestaurtinib Drugmatrix value, Gene Name EPHB3
T3 construct: endogenous in cells
T3 sequence (P54753 34-998): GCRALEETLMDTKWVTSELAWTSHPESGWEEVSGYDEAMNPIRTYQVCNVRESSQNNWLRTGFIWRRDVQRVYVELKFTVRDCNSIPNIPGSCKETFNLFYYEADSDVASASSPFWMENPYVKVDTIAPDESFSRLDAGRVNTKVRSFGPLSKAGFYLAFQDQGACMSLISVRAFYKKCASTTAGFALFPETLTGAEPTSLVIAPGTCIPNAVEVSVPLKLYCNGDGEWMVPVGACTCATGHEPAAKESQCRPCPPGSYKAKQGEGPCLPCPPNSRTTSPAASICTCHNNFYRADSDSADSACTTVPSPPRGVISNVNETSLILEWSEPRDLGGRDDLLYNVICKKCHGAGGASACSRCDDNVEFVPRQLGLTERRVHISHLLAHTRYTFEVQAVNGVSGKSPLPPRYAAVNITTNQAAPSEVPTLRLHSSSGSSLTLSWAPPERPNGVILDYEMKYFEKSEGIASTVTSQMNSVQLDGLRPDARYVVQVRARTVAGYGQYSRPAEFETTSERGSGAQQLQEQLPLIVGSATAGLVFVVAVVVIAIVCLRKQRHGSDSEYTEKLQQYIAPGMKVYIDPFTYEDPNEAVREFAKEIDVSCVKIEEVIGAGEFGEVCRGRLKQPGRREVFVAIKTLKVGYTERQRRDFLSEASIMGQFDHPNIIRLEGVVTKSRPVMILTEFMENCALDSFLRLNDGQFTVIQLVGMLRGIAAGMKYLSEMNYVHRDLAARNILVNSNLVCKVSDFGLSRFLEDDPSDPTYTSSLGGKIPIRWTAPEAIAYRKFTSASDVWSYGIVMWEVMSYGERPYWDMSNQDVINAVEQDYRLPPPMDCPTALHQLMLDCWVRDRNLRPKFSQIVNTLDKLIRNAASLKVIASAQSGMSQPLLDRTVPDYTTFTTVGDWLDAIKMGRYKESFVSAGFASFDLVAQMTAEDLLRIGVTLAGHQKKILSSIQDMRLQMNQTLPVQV

EPHB2 = target: T4, EPHB2 (Homo sapiens, UniProt P29323); experiment: Kinobeads two-dose competition binding: EPHB2; details: read-out: Lestaurtinib Drugmatrix value, Gene Name EPHB2
T4 construct: endogenous in cells
T4 sequence (P29323 19-1055): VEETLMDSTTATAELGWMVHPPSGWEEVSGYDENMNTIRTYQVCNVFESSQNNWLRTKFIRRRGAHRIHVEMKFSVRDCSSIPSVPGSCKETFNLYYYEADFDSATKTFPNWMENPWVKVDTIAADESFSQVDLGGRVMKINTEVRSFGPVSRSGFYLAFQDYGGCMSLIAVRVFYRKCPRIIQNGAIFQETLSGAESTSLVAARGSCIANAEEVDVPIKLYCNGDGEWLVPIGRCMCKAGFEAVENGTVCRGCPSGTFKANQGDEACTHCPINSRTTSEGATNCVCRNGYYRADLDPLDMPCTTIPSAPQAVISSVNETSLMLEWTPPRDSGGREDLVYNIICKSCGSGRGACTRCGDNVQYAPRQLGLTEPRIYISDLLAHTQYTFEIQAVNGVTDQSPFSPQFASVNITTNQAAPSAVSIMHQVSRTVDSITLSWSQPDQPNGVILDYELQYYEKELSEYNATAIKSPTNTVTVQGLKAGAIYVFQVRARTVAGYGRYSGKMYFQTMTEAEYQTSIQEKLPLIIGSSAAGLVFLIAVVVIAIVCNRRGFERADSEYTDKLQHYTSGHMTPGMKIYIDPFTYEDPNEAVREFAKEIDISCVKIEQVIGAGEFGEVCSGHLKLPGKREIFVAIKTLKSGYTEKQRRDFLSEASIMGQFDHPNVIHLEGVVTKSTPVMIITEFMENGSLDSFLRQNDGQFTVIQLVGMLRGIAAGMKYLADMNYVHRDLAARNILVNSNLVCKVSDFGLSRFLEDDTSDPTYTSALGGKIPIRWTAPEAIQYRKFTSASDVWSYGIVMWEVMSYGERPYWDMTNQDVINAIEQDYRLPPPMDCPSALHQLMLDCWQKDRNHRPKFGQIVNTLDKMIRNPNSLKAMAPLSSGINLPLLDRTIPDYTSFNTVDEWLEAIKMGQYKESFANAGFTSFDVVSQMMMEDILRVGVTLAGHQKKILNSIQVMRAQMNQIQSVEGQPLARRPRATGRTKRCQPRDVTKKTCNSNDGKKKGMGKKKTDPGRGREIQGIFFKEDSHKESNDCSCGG

T1 sequence (P54764 20-986): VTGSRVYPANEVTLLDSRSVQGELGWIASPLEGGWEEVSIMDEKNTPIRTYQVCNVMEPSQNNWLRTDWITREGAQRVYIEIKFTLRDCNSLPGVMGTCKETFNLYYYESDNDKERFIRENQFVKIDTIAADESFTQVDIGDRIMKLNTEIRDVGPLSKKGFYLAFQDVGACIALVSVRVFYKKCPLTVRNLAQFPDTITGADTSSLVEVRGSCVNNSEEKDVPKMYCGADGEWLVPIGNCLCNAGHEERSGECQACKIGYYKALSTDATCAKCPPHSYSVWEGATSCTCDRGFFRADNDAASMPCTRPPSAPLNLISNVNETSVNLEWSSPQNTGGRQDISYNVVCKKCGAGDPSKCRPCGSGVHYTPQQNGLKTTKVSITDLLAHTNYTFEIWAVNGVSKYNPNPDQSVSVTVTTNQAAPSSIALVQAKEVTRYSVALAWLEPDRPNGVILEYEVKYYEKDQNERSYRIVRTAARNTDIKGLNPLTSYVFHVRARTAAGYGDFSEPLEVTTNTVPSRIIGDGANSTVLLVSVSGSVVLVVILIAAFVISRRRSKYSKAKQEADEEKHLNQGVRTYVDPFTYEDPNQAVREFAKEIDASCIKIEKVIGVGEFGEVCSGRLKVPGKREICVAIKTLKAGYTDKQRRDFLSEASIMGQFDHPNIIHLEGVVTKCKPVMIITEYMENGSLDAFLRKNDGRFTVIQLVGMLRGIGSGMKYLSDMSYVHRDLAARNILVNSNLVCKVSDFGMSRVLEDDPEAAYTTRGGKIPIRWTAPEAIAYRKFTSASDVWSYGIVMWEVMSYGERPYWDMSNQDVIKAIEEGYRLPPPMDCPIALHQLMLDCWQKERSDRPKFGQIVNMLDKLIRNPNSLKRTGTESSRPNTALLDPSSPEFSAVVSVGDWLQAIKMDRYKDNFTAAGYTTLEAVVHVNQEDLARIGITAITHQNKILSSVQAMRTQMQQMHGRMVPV

Work on `C[C@]12O[C@H](C[C@]1(O)CO)n1c3ccccc3c3c4c(c5c6ccccc6n2c5c31)CNC4=O` [Lestaurtinib] yielded a potency estimated from few doses (EPHA4) of 0.268 µM, a potency estimated from few doses (EPHA1) of 0.297 µM and a potency estimated from few doses (EPHB3) of 0.78 µM. It also gave a potency estimated from few doses (EPHB2) of 0.257 µM.

Source: paper PMC11062922 (Nature Chemical Biology, 2023)
